Results as given in ChEMBL document CHEMBL1201862, “PubChem BioAssay data set” (2004).
Calls of active or inactive are those of the source.

What was measured:
[1] = Trypanosoma cruzi growth suppression in host cells – NIH3T3 host cells, beta-gal luminescence, confirmation (AID 2044); assay type: functional, cell-based;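 also: intracellular parasites grown in NIH/3T3 mouse fibroblasts as host cells; luminescent beta-galactosidase reporter signal from transgenic T. cruzi replicating inside host cells; inhibitors lower the luminescence signal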
[2] = viability of HCT116 lacking mutant beta-catenin – cell-based, human colon tumor, dose response (AID 1045); assay type: functional;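 also: HCT116 colon tumor cells with beta catenin knocked out; cells exposed to compound for 60 hours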
[3] = viability of PTEN-deleted HCT116 cells – cell-based, HCT116 PTEN knockout, dose response (AID 1047); assay type: functional;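 also: HCT116 colon tumor cells with PTEN knocked out; cells exposed to compound for 60 hours before readout; potency for loss of cell viability measured by luminescence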
[4] = cytotoxicity toward MDA-MB-231 breast cancer cells – cell-based, CellTiter-Glo luminescence, cherry-pick, cytotoxicity control for RAD54 inhibitor project, dose response (AID 651692); assay type: functional
[5] = biological target: T1, DNA repair and recombination protein RAD54-like (Homo sapiens, UniProt Q92698); assay: RAD54 Holliday junction migration blockers – biochemical, fluorescence, cherry-picked samples, dose series, confirmation (AID 651657); assay type: functional
T1 sequence (Q92698 whole entry): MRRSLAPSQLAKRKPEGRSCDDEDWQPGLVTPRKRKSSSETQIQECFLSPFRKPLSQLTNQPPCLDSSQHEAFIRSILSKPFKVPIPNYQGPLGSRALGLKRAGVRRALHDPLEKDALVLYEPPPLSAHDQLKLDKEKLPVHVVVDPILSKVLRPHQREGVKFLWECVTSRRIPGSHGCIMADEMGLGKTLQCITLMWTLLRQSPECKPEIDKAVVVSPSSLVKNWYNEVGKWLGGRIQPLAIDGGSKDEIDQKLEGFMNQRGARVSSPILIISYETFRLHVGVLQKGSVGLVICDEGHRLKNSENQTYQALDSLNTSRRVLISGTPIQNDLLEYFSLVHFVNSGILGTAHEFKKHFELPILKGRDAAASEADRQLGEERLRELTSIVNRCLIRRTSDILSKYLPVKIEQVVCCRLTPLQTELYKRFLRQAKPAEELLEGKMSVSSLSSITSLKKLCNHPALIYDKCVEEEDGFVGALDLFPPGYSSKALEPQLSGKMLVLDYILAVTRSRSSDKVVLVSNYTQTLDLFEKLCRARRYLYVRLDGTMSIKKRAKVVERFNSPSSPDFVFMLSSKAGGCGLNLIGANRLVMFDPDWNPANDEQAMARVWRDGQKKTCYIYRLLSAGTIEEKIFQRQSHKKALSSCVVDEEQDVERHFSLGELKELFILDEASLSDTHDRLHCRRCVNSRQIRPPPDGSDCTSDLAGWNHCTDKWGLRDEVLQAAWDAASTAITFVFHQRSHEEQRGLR

[6] = acridine orange displacement from DNA – biochemical, fluorescence polarization, cherry-pick, artefact control for RAD54 inhibitor project, dose response (AID 651673); assay type: functional
[7] = NIH3T3 cell viability loss – ATP luminescence, mouse fibroblasts, counter-screen, dose response (AID 2010); assay type: functional, cell-based;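 also: cells exposed to compound for about 90 hours before reading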
[8] = biological target: 5-hydroxytryptamine receptor 2A (Mus musculus, UniProt P35363); assay type: functional, cell-based;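 also: CHO-K1 cells with tagged receptor and beta-arrestin; agonist potency measured as compound-induced activation of the receptor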
Mu-type opioid receptor = Mu-type opioid receptor (Homo sapiens, UniProt P35372); assay type: functional, cell-based;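 also: U2OS cells with beta-arrestin recruitment to OPRM1 by beta-gal complementation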
[9] = biological target: SWI/SNF-related matrix-associated actin-dependent regulator of chromatin subfamily A member 2 (Homo sapiens, UniProt P51531); assay: Luminescence-based cell-based high throughput dose response assay to identify activators of the function of SWI/SNF related, matrix associated, actin dependent regulator of chromatin, subfamily a, member 2 (SMARCA2, BRM).; assay type: functional
[10] = Counterscreen for activators of the function of SWI/SNF related, matrix associated, actin dependent regulator of chromatin, subfamily a, member 2 (SMARCA2, BRM): Luminescence-based cell-based high throughput dose response assay to identify non-selective compounds using the VP16 reporter assay.; assay type: functional
[11] = viability loss in HeLa cells – cytotoxicity control for MgcRacGAP inhibitor project, dose response (AID 624300); assay type: functional
[12] = biological target: T2, Rac GTPase-activating protein 1 (Homo sapiens, UniProt Q9H0H5); assay: blockers of MgcRacGAP-driven Rac1 GTP hydrolysis – biochemical, ADP Hunter fluorescence, primary and confirmatory, confirmation (AID 624330); assay type: functional
T2 sequence (Q9H0H5 whole entry): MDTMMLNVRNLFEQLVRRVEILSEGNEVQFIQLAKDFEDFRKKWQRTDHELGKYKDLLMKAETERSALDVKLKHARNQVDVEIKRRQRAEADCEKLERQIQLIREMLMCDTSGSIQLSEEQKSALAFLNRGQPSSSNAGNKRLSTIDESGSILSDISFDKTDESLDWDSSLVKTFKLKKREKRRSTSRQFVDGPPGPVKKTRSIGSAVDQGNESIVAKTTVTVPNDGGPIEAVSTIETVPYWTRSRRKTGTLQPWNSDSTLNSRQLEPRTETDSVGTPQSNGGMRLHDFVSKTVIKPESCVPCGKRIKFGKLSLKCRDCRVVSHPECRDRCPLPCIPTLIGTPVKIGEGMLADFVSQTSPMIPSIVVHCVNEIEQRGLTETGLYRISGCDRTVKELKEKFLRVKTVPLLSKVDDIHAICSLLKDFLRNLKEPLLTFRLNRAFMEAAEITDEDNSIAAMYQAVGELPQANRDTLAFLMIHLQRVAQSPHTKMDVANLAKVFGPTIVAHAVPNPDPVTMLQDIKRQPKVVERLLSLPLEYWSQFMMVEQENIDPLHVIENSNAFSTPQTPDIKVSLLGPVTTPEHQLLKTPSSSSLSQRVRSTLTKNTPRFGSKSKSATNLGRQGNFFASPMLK

[13] = biological target: T3, Sentrin-specific protease 1 (Homo sapiens, UniProt Q9P0U3); assay: Dose response confirmation of small molecule inhibitors of the catalytic domain of the SUMO protease, SENP1 in a FRET assay.; assay type: functional; conditions: read-out: IC50_Mean
[14] = biological target: T3, Sentrin-specific protease 1; assay: SENP1 catalytic domain blockers, concentration series – biochemical, kinetic FRET, dose response (AID 651697); assay type: functional; conditions: read-out: IC50_Mean
[15] = biological target: T4, Small ubiquitin-related modifier 1 (Homo sapiens, UniProt P63165); assay: SUMO1 protein-protein binding blockers, potency – biochemical, FRET, dose response (AID 624383); assay type: functional; conditions: read-out: IC50_Mean
[16] = biological target: T5, Voltage-gated N-type calcium channel alpha-1B subunit/Amyloid beta A4 precursor protein-binding family A member 1 (Homo sapiens, UniProt Q00975+Q02410); assay type: protein assay
[17] = biological target: T4, Small ubiquitin-related modifier 1; assay: SUMO1 protein interaction blockers, potency – biochemical, fluorescence polarization, uHTS hits, dose response (AID 624382); assay type: functional; conditions: read-out: IC50_Mean
SUMO-activating enzyme [18] = biological target: T6, SUMO-activating enzyme (Homo sapiens, UniProt Q9UBT2); assay: blockers of UBC9-mediated SUMO conjugation – biochemical, AlphaScreen, SUMOylation inhibitor project, confirmation (AID 2018); assay type: functional
[19] = biological target: Dual specificity protein phosphatase 3 (Homo sapiens, UniProt P51452); assay: VHR phosphatase inhibition, dose response, selectivity assay for STEP inhibitor project, biochemical (AID 602374); assay type: functional; conditions: read-out: IC50_Mean
[20] = biological target: Tyrosine-protein phosphatase non-receptor type 22 (Homo sapiens, UniProt Q9Y2R2); assay: lymphoid phosphatase LYP inhibitors – biochemical, selectivity assay for STEP inhibitor project, dose response (AID 624241); assay type: functional
[21] = biological target: Tyrosine-protein phosphatase non-receptor type 5 (Homo sapiens, UniProt P54829); assay: PTPN5 enzyme inhibition – biochemical, fluorescence intensity, uHTS hits, confirmation (AID 602372); assay type: functional; conditions: read-out: IC50_Mean
[22] = biological target: T5, Voltage-gated N-type calcium channel alpha-1B subunit/Amyloid beta A4 precursor protein-binding family A member 1; assay type: protein assay; remark: listed apart in the source
[23] = biological target: Tyrosine-protein phosphatase non-receptor type 11 (Homo sapiens, UniProt Q06124); assay: PTPN11 enzyme inhibitors – biochemical, selectivity assay for STEP inhibitor project, dose response (AID 602367); assay type: functional; conditions: read-out: IC50_Mean
SUMO-activating enzyme [24] = biological target: T6, SUMO-activating enzyme; assay: blockers of SAE1/SAE2–UBC9 SUMO transfer – biochemical, HTRF, uHTS, primary screen (AID 2006); assay type: protein-complex assay
cells [25] = assay type: functional, cell-based
[26] = biological target: T7, Trace amine-associated receptor 1 (Homo sapiens, UniProt Q96RJ0); assay: Fluorescence-based cell-based high throughput dose response assay to identify agonists of the human trace amine associated receptor 1 (TAAR1).; assay type: functional
[27] = biological target: T7, Trace amine-associated receptor 1; assay: Counterscreen for agonists of the human trace amine associated receptor 1 (hTAAR1): Fluorescence-based cell-based high throughput dose response assay to identify hTAAR1 agonist that also desensitize TAAR1 receptor response.; assay type: functional
cells [28] = assay type: functional, cell-based; remark: listed apart in the source
Beta-lactamase [29] = biological target: Beta-lactamase (Pseudomonas aeruginosa, UniProt Q79MP6);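 also: biochemical dose-response test of metallo-beta-lactamase enzyme inhibition, read out by epi-absorbance; purified recombinant IMP-1 metallo-beta-lactamase with nitrocefin as substrate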
Beta-lactamase [30] = biological target: Beta-lactamase (Salmonella choleraesuis (strain SC-B67), UniProt Q5J463)

T7 sequence (Q96RJ0 whole entry): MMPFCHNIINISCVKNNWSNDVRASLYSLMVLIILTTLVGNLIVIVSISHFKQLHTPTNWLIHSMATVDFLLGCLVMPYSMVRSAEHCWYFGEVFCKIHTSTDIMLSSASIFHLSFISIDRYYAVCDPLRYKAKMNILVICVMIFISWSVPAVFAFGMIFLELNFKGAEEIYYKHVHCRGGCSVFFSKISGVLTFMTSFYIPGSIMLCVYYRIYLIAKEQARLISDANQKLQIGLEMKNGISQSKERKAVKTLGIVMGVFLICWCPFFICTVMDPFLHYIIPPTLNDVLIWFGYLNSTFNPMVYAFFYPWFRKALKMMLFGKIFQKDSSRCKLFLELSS
T3 sequence (Q9P0U3 whole entry, the tested form may be a part): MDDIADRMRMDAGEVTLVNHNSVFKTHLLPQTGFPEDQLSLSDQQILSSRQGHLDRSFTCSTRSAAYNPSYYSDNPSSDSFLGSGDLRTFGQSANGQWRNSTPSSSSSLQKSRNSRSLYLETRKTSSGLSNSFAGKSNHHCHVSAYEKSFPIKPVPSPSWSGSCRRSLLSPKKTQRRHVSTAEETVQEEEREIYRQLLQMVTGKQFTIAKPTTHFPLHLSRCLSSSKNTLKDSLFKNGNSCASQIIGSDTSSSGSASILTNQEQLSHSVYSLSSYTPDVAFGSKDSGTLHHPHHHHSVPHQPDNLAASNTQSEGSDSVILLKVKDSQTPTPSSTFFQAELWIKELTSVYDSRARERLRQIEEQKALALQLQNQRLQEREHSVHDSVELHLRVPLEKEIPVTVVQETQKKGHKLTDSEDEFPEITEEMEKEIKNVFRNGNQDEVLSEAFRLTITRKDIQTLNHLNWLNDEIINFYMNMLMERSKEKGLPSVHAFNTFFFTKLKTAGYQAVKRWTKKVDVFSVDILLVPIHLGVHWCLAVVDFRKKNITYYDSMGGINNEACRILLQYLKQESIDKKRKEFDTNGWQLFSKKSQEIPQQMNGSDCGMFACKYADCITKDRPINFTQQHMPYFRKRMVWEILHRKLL
T5 sequence (Q00975 whole entry): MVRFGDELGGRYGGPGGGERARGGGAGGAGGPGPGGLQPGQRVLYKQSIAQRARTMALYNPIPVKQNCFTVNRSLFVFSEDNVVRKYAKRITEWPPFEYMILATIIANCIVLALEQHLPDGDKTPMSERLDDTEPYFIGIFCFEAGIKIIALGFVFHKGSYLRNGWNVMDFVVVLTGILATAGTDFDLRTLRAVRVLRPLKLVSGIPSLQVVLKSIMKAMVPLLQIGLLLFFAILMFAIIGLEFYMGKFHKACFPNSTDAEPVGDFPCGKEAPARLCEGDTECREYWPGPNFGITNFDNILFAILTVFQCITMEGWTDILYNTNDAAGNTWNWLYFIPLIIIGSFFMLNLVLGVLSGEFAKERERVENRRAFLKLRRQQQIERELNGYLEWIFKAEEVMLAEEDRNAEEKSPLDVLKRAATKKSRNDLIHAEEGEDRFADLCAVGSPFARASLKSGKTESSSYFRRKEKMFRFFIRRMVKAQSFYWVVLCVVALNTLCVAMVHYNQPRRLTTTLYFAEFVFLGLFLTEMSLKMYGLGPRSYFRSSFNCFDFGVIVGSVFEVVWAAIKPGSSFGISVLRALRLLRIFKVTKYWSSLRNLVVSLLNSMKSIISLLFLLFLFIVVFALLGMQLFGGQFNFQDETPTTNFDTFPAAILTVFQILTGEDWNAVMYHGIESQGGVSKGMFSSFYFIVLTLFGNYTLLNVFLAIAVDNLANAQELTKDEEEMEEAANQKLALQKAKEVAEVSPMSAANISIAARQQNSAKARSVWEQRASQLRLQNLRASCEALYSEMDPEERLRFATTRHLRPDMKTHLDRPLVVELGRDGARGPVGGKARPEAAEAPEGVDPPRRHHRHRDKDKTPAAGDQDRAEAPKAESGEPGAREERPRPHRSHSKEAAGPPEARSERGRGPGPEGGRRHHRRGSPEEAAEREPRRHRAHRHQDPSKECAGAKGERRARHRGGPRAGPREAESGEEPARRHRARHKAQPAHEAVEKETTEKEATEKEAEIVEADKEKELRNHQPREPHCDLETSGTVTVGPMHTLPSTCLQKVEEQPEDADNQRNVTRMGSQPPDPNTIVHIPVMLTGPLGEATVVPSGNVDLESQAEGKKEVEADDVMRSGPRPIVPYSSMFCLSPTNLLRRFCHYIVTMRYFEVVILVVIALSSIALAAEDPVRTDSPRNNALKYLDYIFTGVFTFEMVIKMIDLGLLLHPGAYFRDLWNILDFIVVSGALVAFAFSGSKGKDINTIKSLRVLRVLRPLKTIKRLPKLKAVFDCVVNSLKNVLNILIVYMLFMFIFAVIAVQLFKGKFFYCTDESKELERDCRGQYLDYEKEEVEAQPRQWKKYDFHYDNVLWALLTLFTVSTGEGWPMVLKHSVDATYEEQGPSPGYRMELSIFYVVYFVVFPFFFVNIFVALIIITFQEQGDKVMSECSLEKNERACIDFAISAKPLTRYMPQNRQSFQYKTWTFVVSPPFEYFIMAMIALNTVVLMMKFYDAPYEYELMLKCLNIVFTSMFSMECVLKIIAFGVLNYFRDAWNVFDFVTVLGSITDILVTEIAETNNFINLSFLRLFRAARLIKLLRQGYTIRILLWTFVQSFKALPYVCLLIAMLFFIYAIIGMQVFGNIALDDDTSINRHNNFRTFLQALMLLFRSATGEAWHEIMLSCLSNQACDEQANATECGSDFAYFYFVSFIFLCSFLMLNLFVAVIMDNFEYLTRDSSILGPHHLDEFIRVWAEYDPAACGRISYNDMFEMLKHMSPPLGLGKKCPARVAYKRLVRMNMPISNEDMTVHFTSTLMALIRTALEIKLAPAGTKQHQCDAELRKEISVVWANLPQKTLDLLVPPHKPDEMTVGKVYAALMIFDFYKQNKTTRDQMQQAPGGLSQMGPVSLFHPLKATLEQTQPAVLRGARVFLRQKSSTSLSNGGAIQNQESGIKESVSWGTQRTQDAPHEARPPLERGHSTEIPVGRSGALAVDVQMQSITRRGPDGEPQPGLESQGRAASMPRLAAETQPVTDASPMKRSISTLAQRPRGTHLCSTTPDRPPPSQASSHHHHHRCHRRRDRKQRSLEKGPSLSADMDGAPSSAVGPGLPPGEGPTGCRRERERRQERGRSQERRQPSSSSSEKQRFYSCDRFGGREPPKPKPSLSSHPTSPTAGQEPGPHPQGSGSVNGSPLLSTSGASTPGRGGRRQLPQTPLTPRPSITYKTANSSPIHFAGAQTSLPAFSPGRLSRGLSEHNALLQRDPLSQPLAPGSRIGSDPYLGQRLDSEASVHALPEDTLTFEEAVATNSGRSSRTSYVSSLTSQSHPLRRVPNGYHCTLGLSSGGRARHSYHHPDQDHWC
T5 sequence (Q02410 whole entry): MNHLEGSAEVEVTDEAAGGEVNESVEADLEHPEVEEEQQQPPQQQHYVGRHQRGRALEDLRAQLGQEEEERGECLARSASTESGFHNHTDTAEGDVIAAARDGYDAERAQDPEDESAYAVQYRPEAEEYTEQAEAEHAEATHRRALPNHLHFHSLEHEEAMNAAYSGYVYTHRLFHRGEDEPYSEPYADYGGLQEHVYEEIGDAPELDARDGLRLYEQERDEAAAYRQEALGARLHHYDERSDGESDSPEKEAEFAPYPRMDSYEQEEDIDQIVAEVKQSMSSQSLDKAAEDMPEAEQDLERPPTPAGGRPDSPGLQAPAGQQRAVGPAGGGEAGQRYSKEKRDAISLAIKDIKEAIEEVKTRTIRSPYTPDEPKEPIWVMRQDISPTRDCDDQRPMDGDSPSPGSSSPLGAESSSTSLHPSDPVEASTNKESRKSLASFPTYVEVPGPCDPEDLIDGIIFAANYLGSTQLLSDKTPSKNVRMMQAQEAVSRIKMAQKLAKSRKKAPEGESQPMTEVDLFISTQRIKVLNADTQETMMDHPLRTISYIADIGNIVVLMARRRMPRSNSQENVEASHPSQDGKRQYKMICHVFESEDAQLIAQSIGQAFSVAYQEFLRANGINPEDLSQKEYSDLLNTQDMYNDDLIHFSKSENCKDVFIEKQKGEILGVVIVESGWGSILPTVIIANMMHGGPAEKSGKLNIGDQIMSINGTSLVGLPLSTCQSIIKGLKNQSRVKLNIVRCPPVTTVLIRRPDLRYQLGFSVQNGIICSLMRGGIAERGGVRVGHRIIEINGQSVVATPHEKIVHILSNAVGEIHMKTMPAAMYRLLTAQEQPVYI
T4 sequence (P63165 whole entry): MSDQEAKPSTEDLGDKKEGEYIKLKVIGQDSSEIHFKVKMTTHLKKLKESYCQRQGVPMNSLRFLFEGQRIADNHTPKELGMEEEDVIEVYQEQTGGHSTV
Sequence of Tyrosine-protein phosphatase non-receptor type 22 (Q9Y2R2 whole entry): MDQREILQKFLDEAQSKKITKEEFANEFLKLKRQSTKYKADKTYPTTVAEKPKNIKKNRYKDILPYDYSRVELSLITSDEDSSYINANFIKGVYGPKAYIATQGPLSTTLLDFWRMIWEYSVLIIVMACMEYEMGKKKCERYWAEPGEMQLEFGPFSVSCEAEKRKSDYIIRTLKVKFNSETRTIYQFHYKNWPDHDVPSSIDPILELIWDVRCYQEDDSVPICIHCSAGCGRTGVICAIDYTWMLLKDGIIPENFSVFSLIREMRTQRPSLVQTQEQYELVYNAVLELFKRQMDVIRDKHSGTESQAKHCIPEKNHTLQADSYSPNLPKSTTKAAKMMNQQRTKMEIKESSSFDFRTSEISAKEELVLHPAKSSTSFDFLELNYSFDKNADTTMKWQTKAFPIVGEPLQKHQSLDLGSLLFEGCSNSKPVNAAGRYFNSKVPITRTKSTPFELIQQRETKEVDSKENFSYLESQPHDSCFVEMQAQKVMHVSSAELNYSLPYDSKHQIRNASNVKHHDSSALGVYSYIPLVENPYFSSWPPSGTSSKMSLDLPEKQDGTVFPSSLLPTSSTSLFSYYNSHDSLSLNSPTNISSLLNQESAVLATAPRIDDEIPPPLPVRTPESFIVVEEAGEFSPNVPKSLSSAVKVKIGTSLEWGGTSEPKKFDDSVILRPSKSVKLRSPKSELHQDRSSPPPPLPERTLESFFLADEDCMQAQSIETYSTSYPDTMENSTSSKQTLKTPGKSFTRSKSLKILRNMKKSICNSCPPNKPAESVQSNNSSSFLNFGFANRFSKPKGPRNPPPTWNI

COc1ccc(Nc2nc(N3CCCC3)nc3ccccc23)c(OC)c1
EC50 [1]: 627 nM (active) | EC50 [2]: 1.2 µM (active) | EC50 [3]: 1.97 µM (active) | AC50 [4]: 35.6 µM (active) | AC50 [5]: 6.47 µM (active) | AC50 [6]: 63.3 µM (active) | EC50 [7]: 22.2 µM (active)

COc1ccc(CN2CCN(c3ncccn3)CC2)c(C)c1C
EC50 [8]: 263 nM (active) | EC50 (Mu-type opioid receptor): 92.5 µM (inactive)

CC(=O)c1ccc(OCCCC(=O)OCc2nnc(-c3ccc(Cl)cc3)o2)cc1
EC50 [9]: > 91.1 µM (inactive) | EC50 [10]: > 91.1 µM (inactive)

Cn1c(-c2ccc3c(c2)OCO3)cnc1NCc1ccccc1Cl
CC50 [11]: 100 µM (active) | IC50 [12]: 72 µM (active)

O=C1C=C(Nc2ccc(Cl)cc2)C(=O)N1c1ccc(Cl)cc1
IC50 [13]: 12.5 µM (active) | IC50 [14]: 21 µM (inactive)

CCCc1cc(=O)oc2cc(OCC(=O)Nc3ccc(S(N)(=O)=O)cc3)ccc12
IC50 [15]: 6.44 µM (active) | IC50 [16]: 14.2 µM (active) | IC50 [17]: > 66.6 µM (inactive) | IC50 (SUMO-activating enzyme [18]): 6.11 µM (active) | IC50 [19]: 5.69 µM (active) | IC50 [20]: 31 µM (inactive) | IC50 [21]: 15.5 µM (active) | IC50 [22]: > 50 µM (inactive) | IC50 [23]: 1.15 µM (active) | IC50 (SUMO-activating enzyme [24]): 11.5 µM (active)

O=C(O)C1CCCCC1C(=O)NCCc1cccc(Cl)c1 (stereo unspecified)
EC50 (cells [25]): > 29.9 µM (inactive) | EC50 [26]: 2.5 µM (active) | IC50 [27]: > 29.9 µM (inactive) | IC50 (cells [28]): > 29.9 µM (inactive)

CC(C)C(CCN1C(=O)c2ccccc2C1=O)c1ccco1 (stereo unspecified)
IC50 (Beta-lactamase [29]): 36.8 µM (inactive) | IC50 (Beta-lactamase [30]): > 59.6 µM (inactive)
